Source: PMC9457810, “Synthesis, Structure and Antileishmanial Evaluation of Endoperoxide–Pyrazole Hybrids” (Molecules, 2022)
Counter-ions that a name gives are not always drawn. Like-named read-outs stand apart in the source and are kept apart here.

Assays:
L. tropica promastigotes = assay: Leishmania promastigotes in vitro susceptibility (MTT), L. tropica; type: cell-based; details: 48 h, at least three independent assays, read-out: Promastigotes Susceptibility IC50 ± SEM, L. tropica
[1] = system: intracellular amastigotes of L. infantum; assay: Intracellular amastigotes susceptibility in THP-1-derived macrophages (infection index); type: cell-based, Leishmania infantum; details: for SI (selectivity index): SI for amastigote forms = CC50 THP-1 / IC50 L. infantum; for IC50: THP-1-derived macrophages, 72 h, infection index, two independent assays, read-out: Intracellular Amastigote Susceptibility IC50 ± SEM, L. infantum
Description: The in vitro intracellular amastigote assay was performed using a THP1 cell line maintained in complete RPMI at 37 °C, 5% CO2. After 24 h differentiation of 5 × 10^5 cells/mL into macrophages in sterile 16-chamber LabTek slides (Thermo Scientific, Waltham, MA, USA) with 25 ng mL^−1 phorbol myristic acid (PMA, Sigma), cells were washed once with warm RPMI to remove non-differentiated and non-adherent cells and further infected with 5 × 10^6 promastigotes/mL in a 10:1 parasite–macrophage ratio for another 24 h. After this period, slides were gently washed once with warm RPMI to remove non-internalised promastigotes. The compounds 2o, 2t, OZ1•HCl, OZ1•MsOH, and OZ1•TsOH at concentrations ranging 400 µM to 50 µM were added, and the slides were further incubated at 37 °C, 5% CO2 for 72 h. After this period, cells were washed with warm PBS, fixed with methanol (Sigma) and stained with Giemsa 5% (Sigma). AmB was used as positive control, and macrophages cultivated in RPMI medium and DMSO (0.5% v/v) were used as negative control. The infection index was determined by multiplying the percentage of infected cells and the number of amastigotes per infected cell as previously described. The results represent the average of two experiments. The IC50 for each compound was calculated by fitting the data as a non-linear regression with variable slope using a dose–response inhibitory model in the GraphPad Prism V 8.0 (Dotmatics, San Diego, CA, USA) program.
Selectivity index (SI) was determined for each compound as the quotient between the cytotoxicity in cell lines (CC50) and the inhibitory concentration (IC50) (SI = CC50 in mammalian cells/IC50 L. infantum).

THP-1 cell line = assay: In vitro cytotoxicity assessment in THP-1 cell line (MTT); type: cell-based, human; details: THP-1 cells, 48 h, MTT; at least three independent assays; read-out: Cytotoxicity CC50 ± SEM
Description: THP-1 (ATCC® TIB-202TM) human acute monocytic leukemic cell line was obtained from DSMZ, Germany and cultured in RPMI 1640 (Sigma, Darmstadt, Germany) supplemented with 10% (v/v) FBS, 1% (v/v) penicillin-streptomycin (Sigma), and L-glutamine 200 mM (Sigma) at 37 °C, 5% CO2.
THP-1 cell line was used to calculate the endoperoxide–pyrazole hybrids’ half-maximal cytotoxic concentration (CC50). THP-1 was plated at a final density of 5 × 10^5 cells/mL, in 96-well flat bottom culture plates (VWR), using six different concentrations of the compounds (OZ1, OZ2, T1, T2 and PIR: 800, 400, 200, 100, 50, 25 µM) and amphotericin B (10, 5, 2.5, 1.25, 0.625, 0.313 µM). A blank (RPMI medium alone) and an untreated control (parasites with RPMI medium plus 1% DMSO as vehicle solution) were also included. All the compounds were plated out in quadruplicate and incubated for 48 h at 37 °C ± 1 °C, 5% CO2.
Following the incubation period, 20 µL per well of MTT was added as described in Section 3.5.2. After absorbance readings, the CC50 values of each compound were determined with GraphPad Prism V 9.0 (Dotmatics, San Diego, CA, USA) as previously described. At least three independent assays were performed.

[2] = system: L. infantum promastigotes; assay: Leishmania promastigotes in vitro susceptibility (MTT), L. infantum; type: cell-based; details: 48 h, at least three independent assays, read-out: Promastigotes Susceptibility IC50 ± SEM, L. infantum

IC50 (L. tropica promastigotes)	IC50 [1]	IC50 [2]	IC50 (L. tropica promastigotes; Leishmania tropica)	IC50 ([2]; Leishmania infantum)	Compound	SI (selectivity index) [1]	CC50 (THP-1 cell line)
135 ± 36 µM	87 ± 39 µM	164 ± 20 µM			Cl.Nc1ccnn1C(=O)C1CCC2(CC1)OOC1(O2)C2CC3CC(C2)CC1C3 (stereo not drawn) [OZ1•HCl, (5-Amino-1H-pyrazol-1-yl) (dispiro[cyclohexane-1,3′-[1,2,4]trioxolane-5′,2″-tricyclo-[3.3.1.1^3,7]-decan]-4-yl) methanone hydrochloride]	5.9	509 ± 155 µM
198 ± 24 µM	> 400 µM	183 ± 48 µM			CS(=O)(=O)O.Nc1ccnn1C(=O)C1CCC2(CC1)OOC1(O2)C2CC3CC(C2)CC1C3 (stereo not drawn) [OZ1•MsOH, (5-Amino-1H-pyrazol-1-yl) (dispiro[cyclohexane-1,3′-[1,2,4]trioxolane-5′,2″-tricyclo-[3.3.1.1^3,7]-decan]-4-yl) methanone mesylate]	<0.8	336 ± 196 µM
199 ± 9 µM	246 ± 32 µM	181 ± 35 µM			Nc1ccnn1C(=O)C1CCC2(CC1)OOC1(O2)C2CC3CC(C2)CC1C3 (stereo not drawn) [OZ1•TsOH, (5-Amino-1H-pyrazol-1-yl)(dispiro[cyclohexane-1,3′-[1,2,4]trioxolane-5′,2″-tricyclo-[3.3.1.1^3,7]-decan]-4-yl)methanone p-tosylate]	2.1	510 ± 109 µM
> 400 µM		258 ± 91 µM			Nc1ccn(C(=O)C2CCC3(CC2)OOC2(O3)C3CC4CC(C3)CC2C4)n1 (stereo not drawn) [OZ2•HCl, (3-Amino-1H-pyrazol-1-yl) (dispiro[cyclohexane-1,3′-[1,2,4]trioxolane-5′,2″-tricyclo-[3.3.1.1^3,7]decan]-4-yl) methanone hydrochloride]		425 ± 104 µM
260 ± 82 µM		217 ± 47 µM			Nc1ccn(C(=O)C2CCC3(CC2)OOC2(O3)C3CC4CC(C3)CC2C4)n1 (stereo not drawn) [OZ2•TsOH, (3-Amino-1H-pyrazol-1-yl) (dispiro[cyclohexane-1,3′-[1,2,4]trioxolane-5′,2″-tricyclo-[3.3.1.1^3,7]decan]-4-yl) methanone p-tosylate]		479 ± 83 µM
			> 400 µM	> 400 µM	Nc1ccn(C(=O)C2CCC3(CC2)OOC2(OO3)C3CC4CC(C3)CC2C4)n1 (stereo not drawn) [T1•HCl, (3-Amino-1H-pyrazol-1-yl) (dispiro[cyclohexane-1,3′-[1,2,4,5]tetraoxane-6′,2″-tricyclo [3.3.1.1^3,7]decan]-4-yl) methanone hydrochloride]		529 ± 108 µM
> 400 µM		> 400 µM			Nc1ccnn1C(=O)C1CCC2(CC1)OOC1(OO2)C2CC3CC(C2)CC1C3 (stereo not drawn) [T1•TsOH, (5-Amino-1H-pyrazol-1-yl) (dispiro[cyclohexane-1,3′-[1,2,4,5]tetraoxane-6′,2″-tricyclo-[3.3.1.1^3,7]-decan]-4-yl) methanone p-tosylate]		331 ± 126 µM
266 ± 8 µM		313 ± 40 µM			Nc1ccn(C(=O)C2CCC3(CC2)OOC2(OO3)C3CC4CC(C3)CC2C4)n1 (stereo not drawn) [T2•HCl, (3-Amino-1H-pyrazol-1-yl) (dispiro[cyclohexane-1,3′-[1,2,4,5]tetraoxane-6′,2″-tricyclo [3.3.1.1^3,7]decan]-4-yl) methanone hydrochloride]		444 ± 22 µM
